From patent US20140024653A1, “COMPOSITIONS AND METHODS FOR TREATING CANCER USING PI3K INHIBITOR AND MEK INHIBITOR” (priority 2011, published 2014)
Like-named read-outs stand apart in the source and are kept apart here.

Key:
[1] = system: BT20; assay: SRB cell growth assay, 72 h; assay type: cell-based, human; conditions: single agent
[2] = system: SKBR3; assay: SRB cell growth assay, 72 h; assay type: cell-based, human
[3] = system: HCT116; assay: SRB cell growth assay, 72 h; assay type: cell-based, human
[4] = system: human colon carcinoma HCT 116
Procedure: Mice were over 18 g at start of treatment after an acclimatization time of at least 5 days. […] The mice were housed on a 12 hours light/dark cycle.
Human colon carcinoma HCT 116 cells were purchased at American Type Culture Collection [(ATCC), Rockville, Md., USA). The HCT 116 cells were cultured in Dulbecco's modified Eagle's medium (DMEM) (Invitrogen).
The animals required to begin a given experiment were pooled and implanted monolaterally on day 0. Treatments were administered on measurable tumors. The solid tumors were allowed to grow to the desired volume range (animals with tumors not in the desired range were excluded). The mice were then pooled and unselectively distributed to the various treatment and control groups. […] The dosages are expressed in mg/kg, based on the body weight at start of therapy. Mice were checked daily, and adverse clinical reactions noted. Each group of mice was weighed as a whole daily until the weight nadir was reached. Then, groups were weighed once to thrice weekly until the end of the experiment. Tumors were measured with a caliper 2 to 3 times weekly until final sacrifice for sampling time, tumor reached 2000 mm^3 or until the animal died (whichever comes first). Solid tumor volumes were estimated from two-dimensional tumor measurements and calculated according to the following equation:
Changes in tumor volume for each treated (T) and control (C) group were calculated for each tumor by subtracting the tumor volume on the day of first treatment (staging day) from the tumor volume on the specified observation day. The median ΔT is calculated for the treated group, and the median ΔC is calculated for the control group. Then the ratio ΔT/ΔC is calculated and expressed as a percentage. The dose is considered as therapeutically active when ΔT/ΔC is lower than 40% and very active when ΔT/ΔC is lower than 10%.
The percent of tumor regression is defined as the % of tumor volume decrease in the treated group at a specified observation day compared to its volume on the first day of treatment. At a specific time point and for each animal, % regression is calculated. The median % regression is then calculated for the group using the following equation:
Partial regression: Regressions are defined as partial if the tumor volume decreases to 50% of the tumor volume at the start of treatment.
Complete regression: The CR is achieved when tumor volume=0 mm^3 (CR is considered when tumor volume cannot be recorded).

[5] = system: human primary colon tumors CR-LRB-013P; assay: antitumor activity against subcutaneous CR-LRB-013P xenografts; assay type: in vivo; conditions: for tolerability: as single agents or used in combination
Procedure: The human primary colon carcinoma CR-LRB-013P tumor model was established by implanting (SC) small tumor fragments and was maintained in SCID female mice using serial passages.
Treatments were administered on measurable tumors. […] Mice were checked daily, and adverse clinical reactions noted.
Animal body weights included the tumor weight.
The primary efficacy end points are ΔT/ΔC, percent median regression, partial and complete regressions (PR and CR). Statistical analyses were performed on SAS system release 8.2 for SUN4 via Everstat V5 software and SAS 9.2 software. A probability less than 5% (p<0.05) was considered as significant.

[6] = system: MCF7; assay: SRB cell growth assay, 72 h; assay type: cell-based, human; conditions: for GI50: Homo sapiens
[7] = chemical stability of dosing stock solution; assay type: physicochemical; conditions: in 1N HCl and water for injection, pH 3; in the dark at 4° C.
Procedure: Compound (2a) formulation was prepared in water for injection. The stock solution was chemically stable 7 days in the dark at 4° C. […] The pH of the final solution was 3. […]

[8] = system: panel of 81 cancer cell lines; assay: SRB cell growth assay, 72 h, cell line panel; assay type: cell-based, human
[9] = system: DLD1; assay: SRB cell growth assay, 72 h; assay type: cell-based, human; conditions: single agent
[10] = system: PC-3, U87-MG, A2058, WM-266-4 and MCF7 xenografts; conditions: oral administration alone; PTEN-deficient PC-3, U87-MG, A2058, WM-266-4 or PIK3CA mutated MCF7 xenografts; cited from earlier work
[11] = system: COLO678; assay: SRB cell growth assay, 72 h; assay type: cell-based; conditions: Homo sapiens
Procedure: (§1) Cell growth and treatment were performed in 96-well microtitre plates CELLSTAR® (Greiner Bio-One, Germany). Cells harvested from exponential phase cultures by trypsinization were plated in 150 μl of media at optimal seeding densities. The optimal seeding densities for each cell line were determined to ensure exponential growth for the duration of the experiment. All cells growing without anticancer agents were sub-confluent by the end of the treatment as determined by visual inspection.
(§2) 150 μl of cells, after a 24-hour pre-growth period, were treated by mixing with 50 μl of the compound containing media (resulting in a final DMSO concentration of 0.1%). The cells were allowed to grow at 37° C. for 72 hours. In addition, all experiments contained a few plates with cells that were processed for measurement immediately after the 24 hours recovery period. These plates contained information about the cell number that existed before treatment, at time zero, and served to calculate the cytotoxicity.
(§3) After treatment, cells were precipitated by addition of 10% TCA. Prior to fixation, the media was aspirated as described. After an hour of incubation at 4° C., the plates were washed two times with 400 μl of deionized water. Cells were then stained with 100 μl of a 0.08% wt/v SRB. The plates were allowed to sit for at least 30 min. and washed six times with 1% acetic acid to remove unbound stain. The plates were left to dry at room temperature and bound SRB was solubilized with 100 μl of 10 mM Tris base. Measurement of optical density was performed at 560 nm on a Victor 2 plate reader (Perkin Elmer, Germany). The SRB values for A375 and H460 cell lines were near to saturation (2.5 OD units) due to the high protein content of these cells, but not cell confluence. The measurements for these cells were performed at 520 nm instead of 560 nm.
(§4) Using these measurements, cellular responses can be calculated for incomplete inhibition of cell growth (GI), complete inhibition of cell growth (T GI) and net loss of cells (LC) due to compound activity. […] This is the drug concentration causing a 50% reduction compared to the net protein increase in control cells during the drug incubation period. In other words, GI50 is IC50 corrected for time zero. Similar to IC90, calculated GI90 values are also reported for all compounds tested. TGI was calculated from Ti=Tz. […] It was calculated as 100×[(Ti−Tz)/Tz]=−50. However, due to 72 hours treatment, low cell seeding density was required and LC50 could rarely be achieved.

[12] = system: CASKI; assay: SRB cell growth assay, 72 h; assay type: cell-based, human; conditions: single agent
[13] = system: MHHES1; assay: SRB cell growth assay, 72 h; assay type: cell-based, human; conditions: single agent, up to 50 μM
Procedure: as §1, §2, §3, §4

[14] = system: HEK293; assay: SRB cell growth assay, 72 h; assay type: cell-based, human; conditions: single agent, up to 50 μM
Procedure: as §1, §2, §3, §4

[15] = system: MDAMB436; assay: SRB cell growth assay, 72 h; assay type: cell-based, human; conditions: single agent, up to 50 μM
Procedure: as §1, §2, §3, §4

[16] = system: 90 non-kinase targets; conditions: tested at 10 μM; cited from earlier work
[17] = study 1, (2b) 30 mg/kg PO daily days 11-18
[18] = study 2, (2b) 20 mg/kg PO daily days 11-18
[19] = study 4, (2b) 20 mg/kg PO daily days 11-20
[20] = (2b) 20 mg/kg PO daily days 33-50
[21] = study 1, (1) 5 mg/kg PO daily days 11-18
[22] = study 2, (1) 10 mg/kg PO daily days 11-18 (day 17: 20 mg/kg)
[23] = study 2, (1) 20 mg/kg PO daily days 11-18
[24] = study 3, (1) 10 mg/kg PO daily days 11-20
[25] = study 3, (1) 20 mg/kg PO daily days 11-20
[26] = study 4, (1) 10 mg/kg PO daily days 11-20
[27] = study 4, (1) 20 mg/kg PO daily days 11-20
[28] = (1) 20 mg/kg PO daily days 33-50

**Q.** What does the source list for `CCn1c(=O)c(-c2ccn[nH]2)cc2c(C)nc(N)nc21` [Compound (2b), 2-amino-8-ethyl-4-methyl-6-(1H-pyrazol-5-yl)pyrido[2,3-d]pyrimidin-7(8H)-one]?
**A.** z-score MSC0765 [1]: 0.32; GI50 ([2]; Homo sapiens, SK-BR-3, most sensitive, z-score <−1.5): < 500 nM; sensitivity ([2]; single agent): very sensitive; z-score MSC0765 ([2]; single agent): −2.18; GI50 ([3]; Homo sapiens, HCT-116, non-sensitive, z score >1.5): > 4000 nM; z-score MSC0765 ([3]; single agent): 1.90; Average body weight change in % per mouse at nadir [4, 17]: −6.7 (18) %; Drug death [4, 17]: 0/7; Median ΔT/ΔC in % day 18 [4, 17]: 77%; Regressions Complete [4, 17]: 0/7; Regressions Partial [4, 17]: 1/7; Average body weight change in % per mouse at nadir [4, 18]: −3.7 (15) %; Drug death [4, 18]: 0/7; Median ΔT/ΔC in % day 18 [4, 18]: 71%; Regressions Complete [4, 18]: 0/7; Regressions Partial [4, 18]: 0/7; tolerability ([4]; study 2, as single agents): well-tolerated, inducing minimal BWL; Average body weight change in % per mouse at nadir [4, 19]: −4.8 (20) %; Drug death [4, 19]: 0/10; Regressions Complete [4, 19]: 0/10; Regressions Partial [4, 19]: 0/10; tolerability ([4]; study 4, as single agents): well-tolerated, inducing minimal BWL; Average body weight change in % per mouse at nadir [5, 20]: −5.2 (50) %; Drug death [5, 20]: 0/7; Regressions Complete [5, 20]: 0/7; Regressions Partial [5, 20]: 0/7; tolerability [5]: tolerated, inducing some BWL but not reaching toxicity; GI50 [6]: 1600 nM; z-score MSC0765 ([6]; single agent): 0.30; stock solution chemically stable [7]: 7 days; GI50 ([8]; Homo sapiens, all 81 cell lines, log 10-transformed data): 1300 to 1400 nM; differences in activity between sensitive and insensitive cell lines ([8]; panel): 10-20 fold; z-score MSC0765 [9]: 0.81; tumor growth [10]: inhibits tumor growth; GI50 ([11]; COLO-678, non-sensitive, z score >1.5): > 4000 nM; z-score MSC0765 [12]: −0.23

**Q.** Which results are given for `O=C(NC[C@H](O)CO)c1ccncc1Nc1ccc(I)cc1F` [Compound (1), N—((S)-2,3-dihydroxypropyl)-3-(2-fluoro-4-iodo-phenylamino)isonicotinamide]?
**A.** z-score MSC6369 [1]: 0.02; activity (cell growth inhibition) [13]: minimal activity; activity (cell growth inhibition) [14]: minimal activity; activity (cell growth inhibition) [15]: minimal activity; sensitivity ([2]; single agent): non-sensitive; z-score MSC6369 ([2]; single agent): 0.69; z-score MSC6369 ([3]; single agent): −0.32; Average body weight change in % per mouse at nadir [4, 21]: −3.4 (14) %; Drug death [4, 21]: 0/7; Regressions Complete [4, 21]: 0/7; Regressions Partial [4, 21]: 0/7; Median ΔT/ΔC in % day 18 ([4]; study 1, (1) 5 mg/kg PO daily days 11-18, 5 mg/kg): 70%; tolerability ([4]; study 1, as single agents or used in combination): well-tolerated, inducing minimal BWL; Average body weight change in % per mouse at nadir [4, 22]: −2.2 (18) %; Drug death [4, 22]: 0/7; Median ΔT/ΔC in % day 18 [4, 22]: 20%; Regressions Complete [4, 22]: 0/7; Regressions Partial [4, 22]: 0/7; Average body weight change in % per mouse at nadir [4, 23]: −1.1 (15) %; Drug death [4, 23]: 0/7; Median ΔT/ΔC in % day 18 [4, 23]: 22%; Regressions Complete [4, 23]: 0/7; Regressions Partial [4, 23]: 0/7; tolerability ([4]; study 2, as single agents): well-tolerated, inducing minimal BWL; Average body weight change in % per mouse at nadir [4, 24]: −4.9 (20) %; Drug death [4, 24]: 0/10; Regressions Complete [4, 24]: 0/10; Regressions Partial [4, 24]: 0/10; Median ΔT/ΔC in % day 20 ([4]; study 3, (1) 10 mg/kg PO daily days 11-20, 10 mg/kg): 43%; Average body weight change in % per mouse at nadir [4, 25]: −3.6 (19) %; Drug death [4, 25]: 0/10; Median ΔT/ΔC in % day 20 [4, 25]: 34%; Regressions Complete [4, 25]: 0/10; Regressions Partial [4, 25]: 0/10; tolerability ([4]; study 3, as single agents): well-tolerated, inducing minimal BWL; Average body weight change in % per mouse at nadir [4, 26]: −2.3 (13) %; Drug death [4, 26]: 0/10; Regressions Complete [4, 26]: 0/10; Regressions Partial [4, 26]: 0/10; Median ΔT/ΔC in % day 20 ([4]; study 4, (1) 10 mg/kg PO daily days 11-20, 10 mg/kg): 53%; Average body weight change in % per mouse at nadir [4, 27]: −4.1 (18) %; Drug death [4, 27]: 0/10; Regressions Complete [4, 27]: 0/10; Regressions Partial [4, 27]: 0/10; Median ΔT/ΔC in % day 20 ([4]; study 4, (1) 20 mg/kg PO daily days 11-20, 20 mg/kg): 41%; tolerability ([4]; study 4, as single agents): well-tolerated, inducing minimal BWL; Average body weight change in % per mouse at nadir [5, 28]: −4.5 (50) %; Drug death [5, 28]: 0/7; Median ΔT/ΔC in % day 50 [5, 28]: 30%; Regressions Complete [5, 28]: 0/7; Regressions Partial [5, 28]: 0/7; tolerability [5]: tolerated, inducing some BWL but not reaching toxicity; GI50 [6]: 150 nM; z-score MSC6369 ([6]; single agent): −0.33; cell lines sensitive below 100 nM ([8]; 82 cell lines): 27 of 82; IC50 ([8]; Homo sapiens, median of cell lines tested, read-out: median sensitivity): 490 nM; IC50 ([8]; Homo sapiens, sensitive cell lines of the panel, read-out: Efficacy in sensitive cell lines): 4 to 5 nM; difference between the most and least sensitive cell lines ([8]; panel): 10.000 fold; activity against 90 non-kinase targets [16]: no activity; z-score MSC6369 [9]: 0.19; IC50 ([11]; COLO-678, most sensitive cell lines): 4.8 to 8 nM; z-score MSC6369 [12]: 1.55
